In patent EP1018299A2, “Plant treatment agents” (BAYER AG, priority 1992, dated 1994):

Test: UDOS (unilateral desorption from the outer surface): effect of accelerators on the mobility of 14C-labelled 2,4-D in isolated cuticles
Type: in vitro ADME, Citrus
Conditions: Abb. 11; for Zeitabhängigkeit der Effekte: effects increased with time; for Wirkungen (Effekt auf die Mobilität von 2,4-D): compared with Heptanol, Octanol, Nonanol and Decanol

Structure (SMILES) | Zeitabhängigkeit der Effekte | Wirkungen (Effekt auf die Mobilität von 2,4-D)
CCCCCCCCCCCCO [Dodecanol] | stark zeitabhängig | deutlich niedriger
CCCCCCO [Hexanol] | stark zeitabhängig | deutlich niedriger
